Source: US8975400B2, “2,3-dihydroimidazo[1, 2-c] pyrimidin-5(1 H)-one compounds use as LP-PLA2 inhibitors” (Glaxo Group Limited, priority 2011, dated 2015)
Structures can show the parent of a compound that is named as a salt.

What was measured:
[1] = system: splenic macrophages and CNS infiltrating macrophages (M1/M2 markers); assay: Ex vivo analysis of M1 and M2 markers in macrophages of EAE rats by realtime PCR; parameters: species or system rat; conditions: splenic macrophages harvested day 13 post MBP-immunization
Experimental: Ex vivo analysis of proinflammatory (M1) and anti-inflammatory (M2) markers in control and compound treated EAE rats. Splenic macrophages were harvested at day 13 post MBP-immunization and assayed for expression of a variety of markers by realtime PCR. CNS infiltrating cells were harvested and macrophages were analyzed for expression of M1 and M2 markers by realtime PCR.

[2] = system: experimental autoimmune encephalomyelitis (EAE) induced by myelin basic protein (MBP); assay: Rat experimental autoimmune encephalomyelitis (EAE) model, preventive treatment; assay type: in vivo
Experimental: A further study was carried out to study the impact of Lp-PLA2 inhibitors on modulating M1/M2 imbalance. In this study, rats were induced to develop experimental autoimmune encephalomyelitis (EAE) by immunization with myelin basic protein (MBP) antigen and treated with a known Lp-PLA2 inhibitor: 5-((9-Methoxy-4-oxo-6,7-dihydro-4H-pyrimido[6,1-a]isoquinolin-2-yl)oxy)-2-(3-(trifluoromethyl)phenoxy)benzonitrile (See PCT application no. PCT/CN2011/001597). In this preventive treatment model, the compound was administered at day 0 (day of immunization) and continued to administer until day 22. The study lasted for 25 days. Rats were subsequently monitored for symptoms of EAE. Rats were immunized with MBP to develop EAE and symptoms were monitored daily. Plasma Lp-PLA2 activity, OxLDL, and LysoPC concentration were determined at different time points through the course of EAE.

[3] = molecular target: T1, recombinant human Lp-PLA2 (Homo sapiens, UniProt Q13093); assay: Recombinant human Lp-PLA2 assay (rhLp-PLA2, PED6 assay); assay type: biochemical; conditions: recombinant human Lp-PLA2, PED6 substrate; upper limit for pIC50 in this assay is 9.3
T1 sequence (Q13093 22-441): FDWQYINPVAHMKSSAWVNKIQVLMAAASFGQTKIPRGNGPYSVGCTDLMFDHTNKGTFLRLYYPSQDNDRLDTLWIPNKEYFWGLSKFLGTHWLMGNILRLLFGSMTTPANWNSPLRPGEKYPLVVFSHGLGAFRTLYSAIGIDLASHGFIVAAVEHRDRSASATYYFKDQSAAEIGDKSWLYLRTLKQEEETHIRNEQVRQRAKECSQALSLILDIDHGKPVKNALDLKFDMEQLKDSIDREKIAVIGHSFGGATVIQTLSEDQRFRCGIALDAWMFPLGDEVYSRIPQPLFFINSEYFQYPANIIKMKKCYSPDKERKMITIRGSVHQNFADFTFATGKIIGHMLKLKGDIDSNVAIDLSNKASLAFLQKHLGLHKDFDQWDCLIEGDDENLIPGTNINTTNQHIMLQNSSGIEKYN
In short: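 Compound preincubated 30 min with rhLp-PLA2 (4 nM or 110 pM) in 50 mM HEPES pH 7.4, 150 mM NaCl, 1 mM CHAPS, then PED6 substrate (4 μM or 5 μM) added. After 20 min at room temperature protected from light, fluorescence read at ex 480/em 540. pIC50 derived from serial-dilution curves.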

Lp-PLA2 in human plasma = molecular target: T2, Lp-PLA2 in human plasma (Homo sapiens, UniProt Q13093); assay: Lp-PLA2 human plasma assay (Thio-PAF assay); assay type: biochemical; conditions: pooled human plasma, 2-thio-PAF substrate; read-out: pIC50 in the thio-PAF assay (converted)
T2 construct: This assay may detect the activity of Lp-PLA2 in human plasma; from tissue; host or cells: pooled human plasma
T2 sequence (Q13093 22-441): T1 sequence (Q13093 22-441)
In short: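 Pooled human plasma preincubated 30 min with serially diluted compounds, then 2-thio-PAF substrate with CPM and NEM added in 50 mM HEPES pH 7.4, 150 mM NaCl, 1 mM CHAPS. TFA-quenched after 2 min, 40 min at RT, fluorescence ex 380/em 485; pIC50 from curve fit.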

SMILES | IC50 [3] [µM] | IC50 (Lp-PLA2 in human plasma) [µM] | other results
COc1ccc2c(c1)CCn1c-2cc(Oc2ccc(Oc3cccc(C(F)(F)F)c3)c(C#N)c2)nc1=O [5-((9-Methoxy-4-oxo-6,7-dihydro-4H-pyrimido[6,1-a]isoquinolin-2-yl)oxy)-2-(3-(trifluoromethyl)phenoxy)benzonitrile] | – | – | M1 (proinflammatory) markers expression [1]: decrease in M1 markers; M2 (anti-inflammatory) markers expression [1]: increase in M2 markers; LysoPC levels ([2]; rat EAE plasma): decreased; plasma Lp-PLA2 activity ([2]; rat EAE plasma): decreased; clinical disease (EAE) ([2]; rat EAE, compound administered day 0 until day 22, study 25 days): reduction in clinical disease
CC(C)N1CCn2c1cc(OCc1ccc(Oc3ccc(F)c(F)c3)c(C#N)c1)nc2=O [Example E53, 2-(3,4-difluorophenoxy)-5-(((1-isopropyl-5-oxo-1,2,3,5-tetrahydroimidazo[1,2-c]pyrimidin-7-yl)oxy)methyl)benzonitrile] | ≤ 0.01 | ≤ 1 | –
CN1CCn2c1cc(OCc1ccc(Oc3ccc(Cl)nc3)c(F)c1)nc2=O [Example 103, 7-((4-((6-chloropyridin-3-yl)oxy)-3-fluorobenzyl)oxy)-1-methyl-2,3-dihydroimid-azo[1,2-c]pyrimidin-5(1H)-one, trifluoroacetic acid salt] | ≤ 0.01 | ≤ 0.1 | –
CN1CCn2c1cc(OCc1ccc(Oc3ccnc(C#N)c3)c(C#N)c1)nc2=O [Example 130, 4-(2-cyano-4-(((1-methyl-5-oxo-1,2,3,5-tetrahydroimidazo[1,2-c]pyrimidin-7-yl)oxy)methyl)phenoxy)picolinonitrile, trifluoroacetic acid salt] | ≤ 0.01 | ≤ 0.1 | –
CN1CCn2c1cc(OCc1ccc(Oc3ccc(Cl)c(C(F)(F)F)c3)cc1)nc2=O [Example E5, 7-((4-(4-chloro-3-(trifluoromethyl)phenoxy)benzyl)oxy)-1-methyl-2,3-dihydroimidazo[1,2-c]pyrimidin-5(1H)-one] | ≤ 0.01 | ≤ 0.1 | –
CN1CCn2c1cc(OCc1ccc(Oc3ccc(Br)c(F)c3)c(C#N)c1)nc2=O [Example E70, 2-(4-bromo-3-fluorophenoxy)-5-(((I-methyl-5-oxo-1,2,3,5-tetrahydroimidazo[1,2-c]pyrimidin-7-yl)oxy)methyl)benzonitrile] | ≤ 0.001 | ≤ 1 | –
CN1CCn2c1cc(OCc1ccc(Oc3ccnc(C(F)(F)F)c3)cc1)nc2=O [Example 123, 1-methyl-7-((4-((2-(trifluoromethyl)pyridin-4-yl)oxy)benzyl)oxy)-2,3-dihydroimid-azo[1,2-c]pyrimidin-5(1H)-one] | ≤ 0.01 | ≤ 1 | –
